Publication PMC6753678, “Fueling Open Innovation for Malaria Transmission-Blocking Drugs: Hundreds of Molecules Targeting Early Parasite Mosquito Stages” (Frontiers in Microbiology, 2019)
Values joined by “and” are separate entries in the source; they are usually repeats but may differ in a detail not shown here. Equal entries are not always repeated. Where two headings read alike, the source gives them in different places.

Experiments:
[1] = tested on: 3D7-strain P. falciparum asexual parasites; assay: P. falciparum asexual growth inhibition assay (Pf GIA); assay type: cell-based, Plasmodium falciparum; conditions: Plasmodium falciparum
Procedure, shortened: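 Steps: seed parasites (0.25% parasitemia, 2% hematocrit) onto compound dilutions; incubate 72 h at 37°C, 5% O2/5% CO2; freeze at −70°C and thaw; add LDH reaction mix, read A650 after 10 min. Percent growth inhibition derived from chloroquine and DMSO controls, averaged over three biological replicates.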

HepG2 cells [2] = assay: HepG2 cytotoxicity assay
Procedure, shortened: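 Here viability after a 48 h compound incubation (37°C, humidified 5% CO2) is measured by fluorescence and expressed as percent inhibition, with doxorubicin at 50 μM and DMSO as the bounding controls.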

[3] = tested on: P. berghei ookinete development
[4] = tested on: P. falciparum female gametocytes; set-up: method as in Miguel-Blanco et al 2017; conditions: ref Miguel-Blanco et al 2017; read-out: Pf FGAA IC50; cited from earlier work
HepG2 cells [5] = conditions: HepG2; ref Miguel-Blanco et al 2017; cited from earlier work
[6] = tested on: P. berghei ookinete development; assay: microbe, parasite or virus in culture; conditions: Plasmodium berghei
[7] = tested on: P. falciparum female gametocytes; assay: P. falciparum female gametogenesis assay (Pf FGAA); conditions: 1: YES; 0: NO
[8] = tested on: P. berghei oocyst intensity in Anopheles stephensi mosquitoes; assay: P. berghei standard membrane feeding assay (Pb SMFA); conditions: for Raw mosquito counts (oocysts per mosquito): one mosquito per cell; for Number of oocysts counted per mosquito (raw mosquito counts): individual mosquito
[9] = tested on: P. falciparum male gametocytes; assay: P. falciparum Dual Gamete Formation Assay (Pf DGFA), male readout; conditions: for Pf DGFA Male, Expt 1 / Pf DGFA Male, Expt 2 / Pf DGFA Male, Expt 3 / Pf DGFA Male, Expt 4: 1µM; for inhibition at 1 µM: Plasmodium falciparum, read-out: % inhibition Pf DGFA (male) 1 μM (±SEM), 1 μM, mean of four experiments
[10] = tested on: P. falciparum female gametocytes; assay: P. falciparum Dual Gamete Formation Assay (Pf DGFA), female readout; conditions: for Pf DGFA Female, Expt 1 / Pf DGFA Female, Expt 2 / Pf DGFA Female, Expt 3 / Pf DGFA Female, Expt 4: 1µM; for % inhibition Pf DGFA (female) 1 μM (±SEM): mean of four experiments; for inhibition at 1 µM: Plasmodium falciparum, read-out: % inhibition Pf DGFA (female) 1 μM (±SEM), 1 μM, mean of four experiments
[11] = 3D7, dose response confirmation, read-out: Pf asexual growth inhibition assays IC50
[12] = 3D7, 72 h, LDH readout, read-out: IC50 Pf Asexual
[13] = Homo sapiens, HepG2, 48 h, read-out: IC50 HepG2
[14] = read-out: IC50 Pb ODA, dose response, at least triplicate
[15] = read-out: % inhibition, Replicate A
[16] = read-out: % inhibition, Replicate B
[17] = read-out: % inhibition Pb SMFA 1 μM (±SEM), inhibition of oocyst intensity at 1 μM

## Cn1c(Sc2ncnc3sccc23)nc2ccccc21 [TCMDC-124514]
[1]; [11]
  IC50: 187 nM
[1]; [12]
  IC50: 188 nM
HepG2 cells [2]; HepG2 values of the three screens unified
  Unified cytotox: 100.00 µM
HepG2 cells [2]; [13]
  IC50: > 100000 nM
[3]; 1: YES, 0: NO
  Is compound selective in assay? Pb ODA active?: 1 (1: YES)
[3]; [14]
  IC50: > 250 nM and 397 nM
[4]
  IC50: 1250 nM
HepG2 cells [5]
  HepG2 cytoxicity (Pf FGAA screen): >100 µM
[6]; [15]
  inhibition at 1 µM: 109%
[6]; [16]
  inhibition at 1 µM: 101%
[6]; [14]
  IC50: 0.398 µM
[6]; read-out: Pb ODA IC50, this manuscript
  IC50: 0.4 µM
[7]
  Is compound selective in assay? Pf FGAA active?: 1 (1: YES)
[8]; inhibition of oocyst intensity at 1 μM
  % inhibition Pb SMFA 1 μM (±SEM): 9.1%
[8]; [17]
  inhibition at 1 µM: 9.07%
[9]
  Pf DGFA Male, Expt 1: 96.96
  Pf DGFA Male, Expt 2: 90.56
  Pf DGFA Male, Expt 3: 99.40
  Pf DGFA Male, Expt 4: 95.50
  inhibition at 1 µM: 95.6%
[9]; 1 μM, mean of four experiments
  % inhibition Pf DGFA (male) 1 μM (±SEM): 95.61%
[10]
  Pf DGFA Female, Expt 1: 99.03
  Pf DGFA Female, Expt 2: 87.98
  Pf DGFA Female, Expt 3: 99.79
  Pf DGFA Female, Expt 4: 75.95
  % inhibition Pf DGFA (female) 1 μM (±SEM): 90.69%
  inhibition at 1 µM: 90.7%

## C[C@@H]1C[C@@H]([C@H](O)CC2CC(=O)NC(=O)C2)C(=O)[C@@H](C)C1 [TCMDC-125838]
[1]; 3D7, read-out: Pf asexual growth inhibition assays IC50
  IC50: 596 nM
HepG2 cells [2]; read-out: HepG2 cytotoxicity assay IC50, dose response confirmation
  IC50: 100000 nM
HepG2 cells [2]; unified HepG2 value across the three screens
  Unified cytotox: 100.00 µM
[3]
  Is compound selective in assay? Pb ODA active?: 1 (key: 1: YES; 0: NO)
[6]; [15]
  inhibition at 1 µM: 110%
[6]; [16]
  inhibition at 1 µM: 117%
[6]; read-out: Pb ODA IC50 (µM)
  IC50: 0.11 µM
[6]; read-out: Pb Ookinete development assay IC50
  IC50: 0.109 µM

## Cc1[nH]c(C)c(-c2ccc(CCc3ccc(F)cc3F)cc2)c(=O)c1Br [TCMDC-135461]
[1]; [11]
  IC50: 3 nM
[1]; [12]
  IC50: 3.1 nM
HepG2 cells [2]; HepG2 cytotoxicity listed with the Pb ODA data set (this manuscript)
  Pb ODA (this manuscript) HepG2 cytoxicity: 100.00 µM
HepG2 cells [2]; [13]
  IC50: > 100000 nM
[3]
  Is compound selective in assay? Pb ODA active?: 1 (key: 1: YES; 0: NO)
[6]; [15]
  inhibition at 1 µM: 68.3%
[6]; [16]
  inhibition at 1 µM: 109%
[6]; [14]
  IC50: < 0.0002 µM
[8]; Experiment 4, 10nM
  Mean (number of oocysts counted per mosquito): 0.78
  Prevalence: 45.65
[8]; Experiment 4, 100nM
  Mean (number of oocysts counted per mosquito): 0.00
  Raw mosquito counts (oocysts per mosquito): 0
[8]; Experiment 4, 1µM
  Mean (number of oocysts counted per mosquito): 0.00
  Prevalence: 0.00
  Raw mosquito counts (oocysts per mosquito): 0
[8]; Experiment 5, 10nM
  Mean (number of oocysts counted per mosquito): 2.70
  Prevalence: 45.65
[8]; Experiment 5, 100nM
  Mean (number of oocysts counted per mosquito): 1.53
  Number of oocysts counted per mosquito (raw mosquito counts): 0 and 1 and 3
[8]; Experiment 5, 1µM
  Mean (number of oocysts counted per mosquito): 0.00
  Prevalence: 0.00
  Number of oocysts counted per mosquito (raw mosquito counts): 0
  Raw mosquito counts (oocysts per mosquito): 0
[8]; Experiment 6, 10nM
  Mean (number of oocysts counted per mosquito): 58.31
  Prevalence: 98.15
[8]; Experiment 6, 100nM
  Mean (number of oocysts counted per mosquito): 21.75
  Prevalence: 86.76
  Number of oocysts counted per mosquito (raw mosquito counts): 30
[8]; Experiment 6, 1µM
  Mean (number of oocysts counted per mosquito): 0.00
  Prevalence: 0.00
  Number of oocysts counted per mosquito (raw mosquito counts): 0
  Raw mosquito counts (oocysts per mosquito): 0
[8]; read-out: % inhibition (oocyst intensity), Experiment 4, 100nM, vs DMSO
  inhibition at 0.1 µM: 100%
[8]; read-out: % inhibition (oocyst intensity), Experiment 4, 1µM, vs DMSO
  inhibition at 1 µM: 100%
[8]; read-out: % inhibition (oocyst intensity), Experiment 5, 10nM, vs DMSO
  inhibition at 0.01 µM: 28.9%
[8]; read-out: % inhibition (oocyst intensity), Experiment 5, 100nM, vs DMSO
  inhibition at 0.1 µM: 59.6%
[8]; read-out: % inhibition (oocyst intensity), Experiment 5, 1µM, vs DMSO
  inhibition at 1 µM: 100%
[8]; read-out: % inhibition (oocyst intensity), Experiment 6, 10nM, vs DMSO
  inhibition at 0.01 µM: 30.5%
[8]; read-out: % inhibition (oocyst intensity), Experiment 6, 100nM, vs DMSO
  inhibition at 0.1 µM: 74.1%
[8]; read-out: % inhibition (oocyst intensity), Experiment 6, 1µM, vs DMSO
  inhibition at 1 µM: 100%
[8]; [17]
  inhibition at 1 µM: 100%
[8]; read-out: % prev inhibition, Experiment 4, 1µM, vs DMSO
  inhibition at 1 µM: 100%
[8]; read-out: % prev inhibition, Experiment 5, 1µM, vs DMSO
  inhibition at 1 µM: 100%
[8]; read-out: % prev inhibition, Experiment 6, 10nM, vs DMSO
  inhibition at 0.01 µM: 1.85%
[8]; read-out: % prev inhibition, Experiment 6, 100nM, vs DMSO
  inhibition at 0.1 µM: 13.2%
[8]; read-out: % prev inhibition, Experiment 6, 1µM, vs DMSO
  inhibition at 1 µM: 100%
[8]; read-out: inhibition of oocyst intensity Pb SMFA, 10 nM
  inhibition at 0.01 µM: 43%
[8]; read-out: inhibition of oocyst intensity Pb SMFA, 100 nM
  inhibition at 0.1 µM: 77.9%
[9]
  Pf DGFA Male, Expt 1: 97.72
  Pf DGFA Male, Expt 2: 60.95
  Pf DGFA Male, Expt 3: 69.63
  Pf DGFA Male, Expt 4: 73.29
  inhibition at 1 µM: 75.4%
[10]
  Pf DGFA Female, Expt 1: 72.43
  Pf DGFA Female, Expt 2: 81.97
  Pf DGFA Female, Expt 3: -31.20
  Pf DGFA Female, Expt 4: -13.42
  % inhibition Pf DGFA (female) 1 μM (±SEM): 27.45%
  inhibition at 1 µM: 27.4%
